Measurements: the supplement of paper PMC10307832

What was measured:
Experiment in all cases: relative viability (nuclei count vs DMSO), 5 days (fraction); higher = more cells survive
QS11 + Trametinib = compound: C1CC2=C(C1)C=C(C=C2)OC3=NC(=C4C(=N3)N(C=N4)CC5=CC=C(C=C5)C6=CC=CC=C6)N[C@@H](CC7=CC=CC=C7)CO [QS11] + CC(=O)Nc1cccc(-n2c(=O)n(C3CC3)c(=O)c3c(Nc4ccc(I)cc4F)n(C)c(=O)c(C)c32)c1 [Trametinib] (partner 0.02 µM)
How it was run: (§1)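 Lung cancer cell lines were pin-tool dosed in 1536-well plates on the day after seeding, with either a lone drug or a fixed anchor-drug dose plus five library-drug doses (not always all listed) in √10 steps. Nuclei were counted on 4× images after 5 days. Relative viability is the ratio of treated-well to vehicle-well nuclei counts, with each value a median of duplicate plates.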

AZ628 + Trametinib = compound: CC1=C(C=C(C=C1)NC(=O)C2=CC(=CC=C2)C(C)(C)C#N)NC3=CC4=C(C=C3)N=CN(C4=O)C [AZ628] + CC(=O)Nc1cccc(-n2c(=O)n(C3CC3)c(=O)c3c(Nc4ccc(I)cc4F)n(C)c(=O)c(C)c32)c1 [Trametinib] (partner 0.02 µM)
How it was run: as §1

Darinaparsin + AZD7762 = compound: C[As](C)SC[C@H](NC(=O)CC[C@H](N)C(=O)O)C(=O)NCC(=O)O [Darinaparsin] + NC(=O)Nc1cc(-c2cccc(F)c2)sc1C(=O)N[C@H]1CCCNC1 [AZD7762] (partner 0.2 µM)
How it was run: as §1

Darinaparsin + Olaparib = compound: C[As](C)SC[C@H](NC(=O)CC[C@H](N)C(=O)O)C(=O)NCC(=O)O [Darinaparsin] + O=C(c1cc(Cc2n[nH]c(=O)c3ccccc23)ccc1F)N1CCN(C(=O)C2CC2)CC1 [Olaparib] (partner 8 µM)
How it was run: as §1

| Cell Line | relative viability (QS11 + Trametinib; first compound 0.08 µM) | relative viability (QS11 + Trametinib; first compound 0.253 µM) | relative viability (QS11 + Trametinib; first compound 0.8 µM) | relative viability (QS11 + Trametinib; first compound 2.53 µM) | relative viability (QS11 + Trametinib; first compound 8 µM) | relative viability (AZ628 + Trametinib; first compound 0.08 µM) | relative viability (AZ628 + Trametinib; first compound 0.253 µM) | relative viability (AZ628 + Trametinib; first compound 0.8 µM) | relative viability (AZ628 + Trametinib; first compound 2.53 µM) | relative viability (AZ628 + Trametinib; first compound 8 µM) | relative viability (Darinaparsin + AZD7762; first compound 0.08 µM) | relative viability (Darinaparsin + AZD7762; first compound 0.8 µM) | relative viability (Darinaparsin + AZD7762; first compound 2.53 µM) | relative viability (Darinaparsin + AZD7762; first compound 8 µM) | relative viability (Darinaparsin + Olaparib; first compound 0.08 µM) | relative viability (Darinaparsin + Olaparib; first compound 0.8 µM) | relative viability (Darinaparsin + Olaparib; first compound 2.53 µM) | relative viability (Darinaparsin + Olaparib; first compound 8 µM) |
| --- | --- | --- | --- | --- | --- | --- | --- | --- | --- | --- | --- | --- | --- | --- | --- | --- | --- | --- |
| NCI-H838 | 0.558 | 0.535 | 0.355 | 0.469 | 0.383 | 0.491 | 0.466 | 0.486 | 0.477 | 0.556 | 1.03 | 0.963 | 0.971 | 1.07 | 1.07 | 0.778 | 0.734 | 0.941 |
| NCI-H661 | 0.624 | 0.594 | 0.473 | 0.46 | 0.477 | 0.509 | 0.426 | 0.413 | 0.377 | 0.535 | – | – | – | – | 0.799 | 0.787 | 0.699 | 0.815 |
| NCI-H1734 | 0.645 | 0.626 | 0.648 | 0.546 | 0.565 | 0.42 | 0.386 | 0.313 | 0.344 | 0.301 | 0.72 | 0.529 | 0.549 | 0.664 | 0.73 | 0.561 | 0.627 | 0.641 |
| HCC-827 | 0.507 | 0.559 | 0.595 | 0.698 | 0.557 | 0.352 | 0.348 | 0.3 | 0.342 | 0.316 | 0.181 | 0.211 | 0.188 | 0.188 | 0.784 | 0.638 | 0.65 | 0.759 |
| 201T | 0.729 | 0.739 | 0.566 | 0.704 | 0.61 | 0.709 | 0.693 | 0.71 | 0.667 | 0.561 | 0.707 | 0.669 | 0.527 | 0.658 | 0.942 | 0.851 | 0.803 | 0.863 |
| HCC-44 | 1.19 | 0.908 | 0.599 | 1.02 | 1.02 | 0.909 | 0.837 | 0.566 | 0.804 | 0.519 | 1.02 | 1.03 | 1.08 | 1.05 | 1.06 | 0.993 | 0.942 | 1.03 |
| NCI-H650 | 0.825 | 0.934 | 1.06 | 0.959 | 0.983 | 0.568 | 0.393 | 0.357 | 0.365 | 0.282 | 0.94 | 0.882 | 0.941 | 0.95 | 0.368 | 0.361 | 0.418 | 0.34 |
| PC-3 [JPC-3] | – | 0.712 | 0.674 | 0.641 | 0.568 | 0.685 | 0.579 | 0.647 | 0.574 | 0.386 | 0.972 | 0.807 | 0.668 | 0.85 | 1.42 | 1.15 | 1.16 | 1.26 |
| NCI-H1395 | 0.935 | 1.04 | 1.19 | 1.01 | 1.03 | 0.954 | 0.739 | 0.794 | 0.732 | 0.776 | 0.4 | 0.411 | 0.385 | 0.394 | 0.457 | 0.441 | 0.407 | 0.404 |
| CAL-12T | 0.313 | 0.328 | 0.355 | 0.367 | 0.358 | 0.295 | 0.248 | 0.259 | 0.193 | 0.305 | 0.773 | 0.541 | 0.694 | 0.648 | 0.875 | 0.617 | 0.822 | 0.698 |
| SK-MES-1 | 0.519 | 0.557 | 0.451 | 0.507 | 0.527 | 0.32 | 0.318 | 0.308 | 0.262 | 0.369 | – | – | – | – | 0.888 | 0.66 | 0.662 | 0.474 |
| Calu-6 | – | – | – | – | – | – | – | – | – | – | – | – | – | – | 0.592 | 0.59 | 0.594 | 0.556 |
| NCI-H2023 | 0.616 | 0.57 | 0.661 | 0.68 | 0.597 | 0.402 | 0.338 | 0.203 | 0.237 | 0.183 | – | – | – | – | 0.721 | 0.407 | 0.416 | 0.434 |
| NCI-H520 | 0.676 | 0.789 | 0.83 | 0.65 | 0.755 | 0.469 | 0.459 | 0.273 | 0.23 | 0.16 | – | – | – | – | 0.378 | 0.321 | 0.354 | 0.313 |
| NCI-H2009 | 0.242 | 0.32 | 0.24 | 0.279 | 0.256 | 0.208 | 0.177 | 0.198 | 0.179 | 0.194 | – | – | – | – | 0.715 | 0.769 | 0.628 | 0.72 |
| COR-L23 | 0.577 | 0.605 | 0.585 | 0.551 | 0.598 | 0.292 | 0.237 | 0.271 | 0.211 | 0.271 | – | – | – | – | 0.331 | 0.323 | 0.316 | 0.358 |
| A549 | – | – | – | – | – | – | – | – | – | – | – | – | – | – | 0.416 | 0.337 | 0.31 | 0.471 |
| NCI-H1703 | – | – | – | – | – | – | – | – | – | – | 0.199 | 0.186 | – | 0.132 | 0.5 | 0.587 | 0.389 | 0.516 |
| NCI-H1299 | – | – | – | – | – | – | – | – | – | – | – | – | – | – | 1.02 | 0.928 | 0.98 | 0.981 |
| SW 1573 | 0.542 | 0.553 | 0.519 | 0.41 | 0.365 | 0.443 | 0.346 | 0.334 | 0.3 | 0.329 | – | – | – | – | 0.592 | 0.493 | 0.42 | 0.431 |
| NCI-H1650 | 0.459 | 0.667 | 0.366 | 0.751 | 0.552 | 0.502 | 0.541 | 0.329 | 0.327 | 0.497 | – | – | – | – | 0.956 | 0.718 | 0.95 | 0.801 |
| EBC-1 | – | – | – | – | – | – | – | – | – | – | – | – | – | – | 0.811 | 0.731 | 0.603 | 0.511 |
| COR-L 105 | 0.433 | 0.424 | 0.414 | 0.415 | 0.445 | 0.435 | 0.401 | 0.382 | 0.352 | 0.36 | – | – | – | – | 0.747 | 0.695 | 0.758 | 0.69 |
